Laboratory results from patent publication US10766863B2, “Monocarboxylate transport modulators and uses thereof” (NIROGYONE THERAPEUTICS, INC., priority 2014, dated 2020).
One block for each compound: values may come before it.

What was measured:
Assay type in all cases: cell-based
[1] = test system: panel of solid and haemotological tumor cell lines; assay: MTS or MTT cell proliferation assay (cytotoxicity of MCT inhibition); conditions: Homo sapiens; MTS or MTT readout, 72 hours post-dosing; growth medium or 10 mM lactate medium (SiHa); cell line not given
Description: MTS or MTT Cell Proliferation Assay
The anti-proliferation effect of MCT inhibition was investigated across a panel of solid and haemotological tumor cell lines. Cells were routinely cultured in their appropriate growth medium. On day 1, between 5,000 -10,000 cells/well were plated into 96-well plates. 100 μL of phosphate buffered saline solution was added to the external wells to prevent media evaporation. Plates were incubated overnight at 37° C. in the presence of 5% CO2. On day 2, dry weight compound stocks were dissolved to a concentration of 20 mM in 100% DMSO. Compounds were further diluted in either growth medium or 10 mM lactate medium (For SiHa cell lines; Basic DMEM, 10% FBS, 10 mM Na-Lactate, 2.2 g/L NaHCO3, no glutamine) to generate a final dose range of 10 nM to 100 μM. Plates were then incubated at 37° C. in the presence of 5% CO2 for a further 72 hours post-dosing. On day 5, 20 μL of CellTiter 96 AQ MTS reagent or MTT was added to each well and the plate was returned to the incubator for 2-4 hours. In case of lactate medium, the medium was replaced by 100 μL of growth medium and 20 μL of CellTiter 96 AQ MTS reagent or replaced the media in cells with 100 uL of growth media containing 10% MTT solution,. MTS or MTT is bioreduced by NADPH or NADH produced by dehydrogenase enzymes in metabolically active cells into a coloured formazan product that is soluble in tissue culture medium. The amount of coloured formazan product is directly proportional to the number of living cells in culture. In the case of MTT, after 4 hr incubation, the media was removed from the plates and the plate was air-dried. Then, 100 uL of DMSO was added to each well, and incubated for 30 mins at room temperature with mild shaking. The absorbance of the plates was read on a Synergy H4 plate reader using […] or 540 nm measurement wavelength. Dose response curves were plotted and IC50 values were calculated using Prism. The IC50 value is equivalent to the concentration of compound that causes 50% inhibition of growth calculated from the compound treated signal to the vehicle treated signal.

[2] = test system: monocarboxylate transporters; assay: Lactate uptake by 14C-lactate labeling assay; conditions: SiHa cells, compound one hour, 2 μM 14C-lactate for 12 minutes; read-out: Lactate Consumption (%)/[IC50][14C labeled]
Description: Measuring Lactate Uptake by ^14 C-lactate Labeling Assay.
The inhibition of monocarboxylate transporters of the invention was determined using ^14CLactate, and the data are shown in Table II. Cells are maintained in their appropriate growth medium (DMEM medium with 4.5 g/L glucose, 4 mM L-glutamine supplemented with 10% FBS and P/S (growth medium). Cell culture surface of 24-well cell culture plates (BD Bioscience) were aseptically coated with 80 μL poly-lysine (1 mg/mL, Sigma) for 5 mins, then rinsed with sterile cell culture grade water, air-dried for at least 2 hours before introducing cells and medium. SiHa cells were seeded in poly-lysine coated 24-well plate at 500,000 cells/well in growth medium for 6 hours. Replace the growth medium with 1 mL lactate medium (10 mM lactate in base DMEM without sodium pyruvate) for overnight. Cells were rinsed with modified Kreb solution (containing 10 μM L-lactate, without glucose) and then treated with vehicle or increasing concentrations of compounds (0.1, 1, 10, 100 μM) at 37° C. in 1 mL modified Kreb solution (containing 10 μM L-lactate, 0.25% BSA) for one hour. […] After one hour agitation, the radioactivity was measured using Microbeta TriLux. CPM value was recorded and normalized to protein concentration.

[3] = test system: monocarboxylate transporters; assay: Lactate consumption assay in tumor cell lines (enzymatic L-Lactate Kit II); conditions: tumor cells in 10 mM lactate medium, compound 24 hours; concentration not given
Description: Lactate Consumption Assay in Tumor Cell Lines.
Cells are maintained in their appropriate growth medium (DMEM medium with 4.5 g/L glucose, 4 mM L-glutamine supplemented with 10% FBS and P/S (growth medium). Cells (500,000 cells/well) were seeded in 24-well plate in growth medium for 6 hours. Replace the growth medium with 1 mL lactate medium (10 mM lactate in base DMEM without sodium pyruvate) for overnight. Cells were treated with compounds in 1 mL lactate medium for 24 hours. The culture medium was collected and centrifuged at 12,000 rpm for 5 minutes at 4° C. to get rid of any cell debris. An aliquot of 0.5 mL of the supernatant was loaded to a deproteinizing column, centrifuged at 12,000 rpm for 15 minutes at 4° C. The flow-through was collected and stored at -80° C. for future analysis. The amount of lactate in the supernatant was analyzed by enzymatic L-Lactate Kit II (Eton Bioscience Inc.). Briefly, 50 μL of 10 times diluted sample was mixed with 50 μL reaction mixture. Lactic acid is oxidized by enzyme reactions to yield color product, which can be measured in dual modes, either at 570 nm for colorimetric assay or with Ex 530-560/Em 570-595 nm fluorescence assay. And the color or fluorescence intensity is proportional to lactic acid concentrations, therefore the sample lactic acid concentration can be accurately calculated based on the lactic acid standards. […]

- IC50 [2]: < 1000 nM
- Lactate Consumption [Lactate Kit] (%)/[IC50] [3]: 86%
SMILES: CC(C)Cn1cc(C(=O)O)c(=O)c2cc(F)c(N(C)Cc3ccccc3)cc21 [Example 1, 7-(benzyl(methyl)amino)-6-fluoro-1-isobutyl-4-oxo-1,4-dihydroquinoline-3-carboxylic acid]
- EC50 [1]: < 1000 nM

SMILES: CC(C)Cn1cc(C(=O)O)c(=O)c2cc(F)c(N(C)Cc3cccc(F)c3)cc21 [Example 7, 6-fluoro-7-((3-fluorobenzyl)(methyl)amino)-1-isobutyl-4-oxo-1,4-dihydro-quinoline-3-carboxylic acid]
- EC50 [1]: < 1000 nM

SMILES: CC(C)Cn1cc(C(=O)O)c(=O)c2cc(F)c(N(C)Cc3ccc(Cl)cc3)cc21 [Example 4, 7-((4-chlorobenzyl) (methyl)amino)-6-fluoro-1-isobutyl-4-oxo-1,4-dihydro-quinoline-3-carboxylic acid]
- EC50 [1]: < 1000 nM

SMILES: CC(C)Cn1cc(C(=O)O)c(=O)c2cc(F)c(N(C)Cc3cccs3)cc21 [Example 10, 6-fluoro-1-isobutyl-7-(methyl(thiophen-2-ylmethyl)amino)-4-oxo-1,4-dihydro-quinoline-3-carboxylic acid]
- EC50 [1]: < 1000 nM

SMILES: CC(C)Cn1cc(C(=O)O)c(=O)c2cc(F)c(N(C)CC3CCN(C)CC3)cc21 [Example 9, 6-fluoro-1-isobutyl-7-(methyl((1-methyl-piperidin-4-yl)methyl)amino)-4-oxo-1,4-dihydroquinoline-3-carboxylic acid]
- EC50 [1]: < 1000 nM

SMILES: CCn1cc(C(=O)O)c(=O)c2cc(F)c(N(C)Cc3ccccc3)cc21 [Example 6, 7-(benzyl(methyl)amino)-1-ethyl-6-fluoro-4-oxo-1,4-dihydroquinoline-3-carboxylic acid]
- EC50 [1]: < 1000 nM

SMILES: CC(C)n1cc(C(=O)O)c(=O)c2cc(F)c(N(C)Cc3ccccc3)cc21 [Example 17, 7-(benzyl(methyl)amino)-6-fluoro-1-isopropyl-4-oxo-1,4-dihydro-quinoline-3-carboxylic acid]
- EC50 [1]: < 1000 nM

SMILES: CC(C)Cn1cc(C(=O)O)c(=O)c2cc(F)c(N(C)Cc3cccc(C(F)(F)F)c3)cc21 [Example 3, 6-fluoro-1-isobutyl-7-(methyl(3-(trifluoro-methyl)benzyl)amino)-4-oxo-1,4-dihydroquinoline-3-carboxylic acid]
- EC50 [1]: < 1000 nM

SMILES: COc1cccc(CN(C)c2cc3c(cc2F)c(=O)c(C(=O)O)cn3CC(C)C)c1 [Example 8, 6-fluoro-1-isobutyl-7-((3-methoxybenzyl) (methyl)amino)-4-oxo-1,4-dihydroquinoline-3-carboxylic acid]
- EC50 [1]: < 1000 nM

SMILES: CC(C)Cn1cc(C(=O)O)c(=O)c2cc(F)c(NCc3cccc(C(F)(F)F)c3)cc21 [Example 5, 6-fluoro-1-isobutyl-4-oxo-7-((3-(trifluoro-methyl)benzyl)amino)-1,4-dihydroquinoline-3-carboxylic acid]
- EC50 [1]: < 1000 nM

SMILES: CC(C)Cn1cc(C(=O)O)c(=O)c2cc(F)c(N(C)C(=O)c3ccccc3)cc21 [Example 11, 6-fluoro-1-isobutyl-7-(N-methylbenzamido)-4-oxo-1,4-dihydro-quinoline-3-carboxylic acid]
- EC50 [1]: < 1000 nM

SMILES: Cc1cc(C)n(Cc2cc3c(cc2C(=O)N2CCC2)c(=O)c(C(=O)O)cn3CC(C)C)n1 [Example 15, 6-(azetidine-1-carbonyl)-7-((3,5-dimethyl-1H-pyrazol-1-yl)methyl)-1-isobutyl-4-oxo-1,4-dihydroquinoline-3-carboxylic acid]
- EC50 [1]: < 1000 nM

SMILES: CC(C)n1cc(C(=O)O)c(=O)c2cc(F)c(N(C)Cc3ccc(F)cc3)cc21 [Example 18, 6-fluoro-7-((4-fluorobenzyl)(methyl)amino)-1-isopropyl-4-oxo-1,4-dihydro-quinoline-3-carboxylic acid]
- EC50 [1]: < 1000 nM

SMILES: COc1cccc(CN(C)c2cc3c(cc2F)c(=O)c(C(=O)O)cn3Cc2ccccc2)c1 [Example 12, 1-benzy1-6-fluoro-7-((3-methoxybenzyl) (methyl)amino)-4-oxo-1,4-dihydroquinoline-3-carboxylic acid]
- EC50 [1]: < 1000 nM

SMILES: CC(C)n1cc(C(=O)O)c(=O)c2cc(F)c(N(C)Cc3cccnc3)cc21 [Example 16, 6-fluoro-1-isopropyl-7-(methyl(pyridin-3-ylmethyl)amino)-4-oxo-1,4-dihydro-quinoline-3-carboxylic acid]
- EC50 [1]: < 1000 nM
